PMC3574796 (Future medicinal chemistry, 2012)

Columns and labels:
[1] = test system: malaria parasite; conditions: cited from earlier work
[2] = test system: P. falciparum parasites (DV morphology); assay: Digestive vacuole phenotype, light microscopy of Giemsa-stained parasites; format: cell-based, Plasmodium falciparum; conditions: 3.3 µM compound

Structure (SMILES) | Antimalarial activity [1] | DV phenotype [2]
Nc1cc(Cl)ccc1Cl [2,5-dichloroaniline] | without antimalarial activity | –
CC(C)C[C@H](NC(=O)[C@H]1O[C@@H]1C(=O)O)C(=O)NCCCCN=C(N)N [Compound E64, E64] | – | swollen and dark staining DV phenotype
